Like-named read-outs stand apart in the source and are kept apart here.
Assays:
Type in all cases: cell-based
[1] = tested on: LOX IMVI; test: NCI60 five-dose screen; conditions: Homo sapiens
[2] = tested on: SW-620; test: NCI60 five-dose screen; conditions: Homo sapiens, SW-620
[3] = tested on: Melanoma panel; test: NCI60 five-dose screen, panel mean; conditions: Homo sapiens, read-out: GI50 Mean
[4] = tested on: MDA-MB-435; test: NCI60 five-dose screen; conditions: Homo sapiens, MDA-MB-435
[5] = tested on: KM12; test: NCI60 one-dose screen; conditions: Homo sapiens, KM12, read-out: Growth percent
[6] = tested on: SK-MEL-5; test: NCI60 five-dose screen; conditions: Homo sapiens, SK-MEL-5
[7] = tested on: T-47D; test: NCI60 one-dose screen; conditions: Homo sapiens, T47D, read-out: Growth percent
[8] = tested on: MOLT-4; test: NCI60 one-dose screen; conditions: Homo sapiens, MOLT-4, read-out: Growth percent
[9] = tested on: PC-3; test: NCI60 five-dose screen; conditions: Homo sapiens, PC-3
[10] = tested on: HOP-62; test: NCI60 five-dose screen; conditions: Homo sapiens, HOP-62
[11] = tested on: NCI-H23; test: NCI60 five-dose screen; conditions: Homo sapiens, NCI-H23
[12] = tested on: KM12; test: NCI60 five-dose screen; conditions: Homo sapiens, KM12
[13] = tested on: RPMI-8226; test: NCI60 one-dose screen; conditions: Homo sapiens, RPMI-8226, read-out: Growth percent
[14] = tested on: UACC-257; test: NCI60 one-dose screen; conditions: Homo sapiens, UACC-257, read-out: Growth percent
[15] = tested on: MCF7; test: NCI60 five-dose screen; conditions: Homo sapiens, MCF7
[16] = tested on: CAKI-1; test: NCI60 five-dose screen; conditions: Homo sapiens, CAKI-1
[17] = tested on: OVCAR-5; test: NCI60 one-dose screen; conditions: Homo sapiens, OVCAR-5, read-out: Growth percent
[18] = tested on: HOP-92; test: NCI60 one-dose screen; conditions: Homo sapiens, HOP-92, read-out: Growth percent
[19] = tested on: 60 human tumor cell lines (NCI60); test: NCI60 one-dose screen, overall mean; conditions: for activity at 10 µM: Homo sapiens, 60 cell, read-out: Mean growth percent; for average reduction / average cell death: one-dose, 10 µM, average over cell lines
[20] = tested on: SR; test: NCI60 five-dose screen; conditions: Homo sapiens
[21] = tested on: EKVX; test: NCI60 one-dose screen; conditions: Homo sapiens, read-out: Growth percent
[22] = tested on: OVCAR-4; test: NCI60 five-dose screen; conditions: Homo sapiens, OVCAR-4
[23] = tested on: COLO 205; test: NCI60 one-dose screen; conditions: Homo sapiens, COLO 205, read-out: Growth percent
[24] = tested on: DU-145; test: NCI60 five-dose screen; conditions: Homo sapiens, DU-145
[25] = tested on: Non-small Cell Lung Cancer panel; test: NCI60 five-dose screen, panel mean; conditions: Homo sapiens, read-out: GI50 Mean
[26] = tested on: UACC-257; test: NCI60 five-dose screen; conditions: Homo sapiens, UACC-257
[27] = tested on: NCI-H460; test: NCI60 five-dose screen; conditions: Homo sapiens, NCI-H460
[28] = tested on: PC-3; test: NCI60 one-dose screen; conditions: Homo sapiens, PC-3, read-out: Growth percent
[29] = tested on: SF-539; test: NCI60 one-dose screen; conditions: Homo sapiens, SF-539, read-out: Growth percent
[30] = tested on: K-562; test: NCI60 one-dose screen; conditions: Homo sapiens, K562, read-out: Growth percent
[31] = tested on: 60 human tumor cell lines (NCI60); test: NCI60 five-dose screen, overall mean
[32] = tested on: 786-0; test: NCI60 five-dose screen; conditions: Homo sapiens, 786-0
[33] = tested on: SW-620; test: NCI60 one-dose screen; conditions: Homo sapiens, SW-620, read-out: Growth percent
[34] = tested on: SN12C; test: NCI60 five-dose screen; conditions: Homo sapiens
[35] = 60 cell, read-out: Mean GI50, mean over all 60 cell lines
[36] = read-out: GI50 Mean, mean over all 60 human cancer cell lines

SMILES	GI50 [1]	GI50 [2]	GI50 [3]	GI50 [4]	activity at 10 µM [5]	GI50 [6]	activity at 10 µM [7]	activity at 10 µM [8]	GI50 [9]	GI50 [10]	GI50 [11]	GI50 [12]	activity at 10 µM [13]	activity at 10 µM [14]	GI50 [15]	GI50 [16]	activity at 10 µM [17]	activity at 10 µM [18]	activity at 10 µM [19]	average reduction / average cell death [19]	further results
CC[C@]12C=CCN3CC[C@@]4(c5ccc(OC)cc5N(C)[C@H]4[C@@](O)(C(=O)OC)[C@@H]1OC(=O)CCCC[P+](c1ccc(C)cc1)(c1ccc(C)cc1)c1ccc(C)cc1)[C@@H]32 [10a]	797 nM	761 nM	920 nM	678 nM	-73.6%	1570 nM	-64.5%	-25%	450 nM	1370 nM	855 nM	596 nM	-46%	-95%	325 nM	7460 nM	-96%	-77.9%	-78.7%	more than 70%	GI50 [20]: 360 nM; activity at 10 µM [21]: -93.8%; GI50 [22]: 1090 nM; activity at 10 µM [23]: -64.1%; GI50 [24]: 1150 nM; GI50 [25]: 1070 nM; GI50 [26]: 817 nM; GI50 [27]: 600 nM; activity at 10 µM [28]: -73.2%; activity at 10 µM [29]: -98.7%; activity at 10 µM [30]: 0.8%; GI50 [31, 35]: < 3000 nM; GI50 [31, 36]: 1230 nM; GI50 [32]: 1640 nM; activity at 10 µM [33]: -88.2%; GI50 [34]: 619 nM
CC[C@]12C=CCN3CC[C@@]4(c5ccc(OC)cc5N(C)[C@H]4[C@@](O)(C(=O)OC)[C@@H]1OC(=O)CCCC[P+](c1ccc(OC)cc1)(c1ccc(OC)cc1)c1ccc(OC)cc1)[C@@H]32 [10b]	1110 nM	1060 nM	980 nM	521 nM	-68.8%	1600 nM	-46.6%	-26.2%	562 nM	2420 nM	1190 nM	675 nM	-68.8%	-93.4%	105 nM	15200 nM	-98.6%	-74.5%	-70.4%	more than 70%	GI50 [20]: 428 nM; activity at 10 µM [21]: -59.7%; GI50 [22]: 1570 nM; activity at 10 µM [23]: -64.9%; GI50 [24]: 16000 nM; GI50 [25]: 1360 nM; GI50 [26]: 792 nM; GI50 [27]: 1150 nM; activity at 10 µM [28]: -37.2%; activity at 10 µM [29]: -97.5%; activity at 10 µM [30]: 1.01%; GI50 [31, 35]: < 3000 nM; GI50 [31, 36]: 2200 nM; GI50 [32]: 2590 nM; activity at 10 µM [33]: -88.7%; GI50 [34]: 1180 nM
